Assay [1] has as its system 4MOSC1. The assay can be described thus: Cytotoxicity, Alamar Blue assay. The conditions noted are these: 4MOSC1, 72 h drug exposure, one value per biological replicate, read-out: IC50 values. The class given is cell-based, murine. As to the method: (§1) Murine colorectal (MC38 (ENH204-FP)) cancer cell lines were obtained from Kerafast. Murine head and neck MOC1 and MOC2 were generously provided by Dr. R. Uppaluri. CAL27 PIK3CA H1047R expressing cells and 4MOSC1 cells were generated in Dr. Gutkind’s laboratory and previously characterized[42],[55]. […] MC38 cells were cultured in DMEM supplemented with 10% FBS, 1 mM sodium pyruvate (Gibco), 1% non-essential amino acids (Gibco), and 10 mM HEPES (Gibco). MOC1 and MOC2 cells were cultured in IMDM (Lonza)/F-12K nutrient mixture at a 2:1 mixture with 5% FBS, 5 ng/ml EGF (EMD Millipore), 400 ng/ml hydrocortisone (Sigma), and […] insulin (Sigma). On receipt, each cell line was expanded, cryopreserved as low passage stocks, and routinely tested for mycoplasma. Cisplatin (Enzo Biosciences), paclitaxel (Sigma), and MMAE (Concortis) were reconstituted in DMSO. Clinical-grade CDX3379 was provided by Celldex. Clinical grade cetuximab (Erbitux, Lilly Medical) was obtained from UCSD Moores Cancer Center Pharmacy.
(§2) Cells were plated in 96-well plates and exposed to a drug concentration range for 72 h. Alamar Blue was added to the cells and allowed to incubate for 2–4 h at 37 °C. Plates were analyzed using a plate reader with fluorescence measured at 560 nm. Fractional survival was normalized to untreated control cell fluorescent values. Drug IC50 was calculated using Prism software (GraphPad, La Jolla, CA). Cell viability, cytotoxicity and apoptosis were also measured by ApoTox-Glo Triplex Assay (Promega).

In assay [2] the test system is B16. Kind of assay: Cytotoxicity, Alamar Blue assay. The conditions noted are these: B16, 72 h drug exposure, one value per biological replicate, read-out: IC50 values. It counts as cell-based, murine. As to the method:
as §1, §2
In general terms: Alamar Blue is a resazurin reagent that responds to reducing activity.

In assay [3] the test system is MC38. The assay can be described thus: Cytotoxicity, Alamar Blue assay. The class given is cell-based, murine. The conditions noted are these: MC38, 72 h drug exposure, one value per biological replicate, read-out: IC50 values. As to the method: as §1, §2
Assay [4] deals with LL/2 cells. The assay can be described thus: Clonogenic survival with MMAE and 2 Gy (SF2). On the set-up: key: fraction surviving 2 Gy relative to non-irradiated cells. The class given is cell-based, murine. As to the method: Cells were treated with MMAE for 24 h and then irradiated with 2 Gy. […] Following IR, cells were counted, re-plated at varying cell numbers in drug free media. 10–14 days after initial seeding formed colonies were methanol fixed, stained with crystal violet, and counted. Surviving fraction at 2 Gy (SF2) was calculated as the fraction of cells surviving 2 Gy compared to non-irradiated cells. […]

Assay [5] concerns CAL27 WT and CAL27 PIK3CA H1047R cells. Kind of assay: Cell culture MMAE sensitivity of isogenic cell lines. The class given is cell-based, human. Conditions: CAL27 WT vs CAL27 PIK3CA H1047R. An excerpt:
Specific Comment 3: “Line 266: fig 3e: the **** significance; is this IR+MMAE vs IR, or vs MMAE? Please […]
Response: Reviewer #2 raised a similar comment, (Rev #2, Comment 5). As mentioned, the statistical analysis in our original submission compared all 4 experimental groups. Based on Reviewers #2 & #4 […]
Importantly for scientific rigor & reproducibility , we would highlight that MMAE ± IR tumor response studies in syngeneic mice were replicated […]
Specific Comment 4: “Experiments with RAG mice showing that CD8+ T-cells are involved in the response to MMAE+IR are intriguing. A mechanistic explanation is however lacking. If T-cells are crucial for tumor control under IR, why is there such good response in CAL27 xenografts in nude mice with monotherapy only?” […]
adaptive immunity on durable tumor control of syngeneic tumors treated with MMAE + IR. Using depleting […]
mediated durable tumor control of MMAE radiosensitization . […]
Response: In cell culture testing, MOC1 and MOC2 cells were sensitive to MMAE and CDX3379-MMAE as measured by Alamar Blue assay. For Alamar Blue assay cytotoxicity, we measured cell viability at 72 hr of […]

Values joined by “and” are separate entries in the source; they are usually repeats but may differ in a detail not shown here. Equal entries are not always repeated. Non-standard residues stand in square brackets, D forms with d. Residues, ends and D or L forms follow the SMILES beside them. *: point of attachment. Dolaproine = CO[C@@H]([C@@H]1CCCN1)[C@@H](C)C(=O)O; Dil = CC[C@H](C)[C@H](NC)[C@@H](CC(=O)O)OC; X1 = C[C@@H](N*)[C@@H](O)c1ccccc1; NMeV = CN[C@H](C(=O)O)C(C)C

The term IC50 denotes the midpoint of a concentration-inhibition curve. As to `CC[C@H](C)[C@@H]([C@@H](CC(=O)N1CCC[C@H]1[C@H](OC)[C@@H](C)C(=O)N[C@H](C)[C@@H](O)c1ccccc1)OC)N(C)C(=O)[C@@H](NC(=O)[C@@H](NC)C(C)C)C(C)C` [MMAE, monomethyl auristatin E] (H-[NMeV]V[Dil][Dolaproine]-X1), the IC50 in assay [1] was 1.82 nM and 1.52 nM; in assay [2], 1.77 nM and 2.33 nM and 1.94 nM and 3.12 nM; in assay [3] it was 14.4 nM and 14.9 nM and 30.4 nM. The SF2 in assay [4] (MMAE 1 nM with 2 Gy, replicate 1) was determined as 0.48; in assay [4] (MMAE 1 nM with 2 Gy, replicate 2), 0.48; in assay [4] (MMAE 1 nM with 2 Gy, replicate 3), 0.66; in assay [4] (MMAE 1 nM with 2 Gy, replicate 4), 0.44; in assay [4] (MMAE 1 nM with 2 Gy, replicate 5), 0.62; in assay [4] (MMAE 1 nM with 2 Gy, replicate 6), 0.64. The SF2 in assay [4] (MMAE 2 nM with 2 Gy, replicate 1) was 0.46; in assay [4] (MMAE 2 nM with 2 Gy, replicate 2) it was 0.53; in assay [4] (MMAE 2 nM with 2 Gy, replicate 3), 0.53; in assay [4] (MMAE 2 nM with 2 Gy, replicate 4), 0.41; in assay [4] (MMAE 2 nM with 2 Gy, replicate 5), 0.43; in assay [4] (MMAE 2 nM with 2 Gy, replicate 6), 0.43. Further, the SF2 is on record as 0.29 in assay [4] (MMAE 3 nM with 2 Gy, replicate 1); 0.45 in assay [4] (MMAE 3 nM with 2 Gy, replicate 2); 0.38 in assay [4] (MMAE 3 nM with 2 Gy, replicate 3); 0.45 in assay [4] (MMAE 3 nM with 2 Gy, replicate 4); 0.26 in assay [4] (MMAE 3 nM with 2 Gy, replicate 5); 0.38 in assay [4] (MMAE 3 nM with 2 Gy, replicate 6). Further, the “MMAE sensitivity of isogenic cell lines” value in assay [5] is “did not see an appreciable difference in MMAE sensitivity between the isogenic cell lines”.

These data come from publication PMC9256669, “Monomethyl auristatin antibody and peptide drug conjugates for trimodal cancer chemo-radio-immunotherapy” (Nature Communications, 2022).
